In patent US20240158446A1, “CYCLIC COMPOUND HAVING SELECTIVE INHIBITORY ACTION ON KRAS OVER HRAS AND NRAS” (CHUGAI SEIYAKU KABUSHIKI KAISHA, priority 2021, published 2024):
Read-outs that look alike come from different tables or passages of the source. *1 amine or outer side, *2 acyl side, *3 side chain or, on linkers, in order; H or OH if unused. Where a SMILES comes first, the peptide text is derived from it. Bridges are numbered along the chain shown (N, C = ends). [ ]: non-standard residue; d: D form. The star is where a group is joined. hPhe(3,5-F2-4-CF3) = N[C@@H](CCc1cc(F)c(C(F)(F)F)c(F)c1)C(=O)O; hPhe(3-Cl-4-CF3) = N[C@@H](CCc1ccc(C(F)(F)F)c(Cl)c1)C(=O)O; NPrPhe(4-CF3) = CCCN[C@@H](Cc1ccc(C(F)(F)F)cc1)C(=O)O; X19 = CCCN([C@@H](CC1CCC(F)(F)CC1)C(=O)[*:2])[*:1]; NMeGly(cPent) = CN[C@H](C(=O)O)C1CCCC1; Hyp = O=C(O)[C@@H]1C[C@@H](O)CN1; NMeD = CN[C@@H](CC(=O)O)C(=O)O; NMeL = CN[C@@H](CC(C)C)C(=O)O; Morpholide = C1CN(*)CCO1; NMeA = CN[C@@H](C)C(=O)O; Ac5c = NC1(C(=O)O)CCCC1; Aze = O=C(O)[C@@H]1CCN1; Ac4c = NC1(C(=O)O)CCC1; NEtG = CCNCC(=O)O; Sar = CNCC(=O)O

Key:
[1] = target: GDP-bound KRAS wild-type protein (Homo sapiens, UniProt P01116); test: Binding to KRAS by surface plasmon resonance (SPR), Single Cycle Kinetics; settings: GDP-bound KRAS wild-type protein, read-out: KRAS KD
GDP-bound KRAS wild-type protein, sequence (P01116 whole entry): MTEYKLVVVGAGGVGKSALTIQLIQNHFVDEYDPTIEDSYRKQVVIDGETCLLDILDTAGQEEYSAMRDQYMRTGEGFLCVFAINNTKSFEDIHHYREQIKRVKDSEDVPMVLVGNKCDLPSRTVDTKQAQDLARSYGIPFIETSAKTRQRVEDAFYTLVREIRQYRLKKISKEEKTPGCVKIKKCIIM

[2] = target: GDP-bound HRAS wild-type protein (Homo sapiens, UniProt P01112); test: Binding to HRAS by surface plasmon resonance (SPR), Single Cycle Kinetics; settings: SPR, GDP-bound HRAS wild-type protein vs GDP-bound KRAS wild-type protein
GDP-bound HRAS wild-type protein, sequence (P01112 whole entry): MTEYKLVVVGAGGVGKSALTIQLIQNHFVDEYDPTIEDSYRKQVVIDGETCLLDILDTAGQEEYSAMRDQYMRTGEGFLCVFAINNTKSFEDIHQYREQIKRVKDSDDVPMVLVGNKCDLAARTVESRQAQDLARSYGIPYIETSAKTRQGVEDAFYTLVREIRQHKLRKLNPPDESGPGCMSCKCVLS

[3] = target: GDP-bound NRAS wild-type protein (Homo sapiens, UniProt P01111); test: Binding to NRAS by surface plasmon resonance (SPR), Single Cycle Kinetics; settings: SPR, GDP-bound NRAS wild-type protein vs GDP-bound KRAS wild-type protein
GDP-bound NRAS wild-type protein, sequence (P01111 whole entry): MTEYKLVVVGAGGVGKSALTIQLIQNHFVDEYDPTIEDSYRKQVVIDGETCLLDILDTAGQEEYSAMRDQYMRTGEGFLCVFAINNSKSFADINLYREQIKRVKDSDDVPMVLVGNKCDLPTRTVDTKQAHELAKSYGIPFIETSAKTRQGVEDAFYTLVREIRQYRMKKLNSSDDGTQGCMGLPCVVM

[4] = SPR Single Cycle Kinetics, 1:1 binding model

SMILES	Kd [1, 4] [nM]	HRAS/KRAS (ratio of KD value with respect to HRAS to KD value with respect to KRAS) [2]	NRAS/KRAS (ratio of KD value with respect to NRAS to KD value with respect to KRAS) [3]	also measured
CC[C@H](C)[C@@H]1NC(=O)[C@H](CC)N(C)C(=O)C[C@@H](C(=O)N(C)C)N(C)C(=O)[C@H](C2CCCC2)N(C)C(=O)C2(CCC2)NC(=O)[C@@H]2CCCCN2C(=O)[C@H](CCc2cc(F)c(C(F)(F)F)c(F)c2)NC(=O)CN(C)C(=O)[C@H](Cc2ccc(C(F)(F)F)cc2)N2CCCC[C@@H](C2=O)N(C)C(=O)CN(C)C1=O [PP0658]	0.034	B (a compound having 3 or more and less than 10 is denoted as B)	C (A compound having a KD ratio of 0.1 or more and less than 3 is denoted as C)	–
CC[C@H](C)[C@@H]1NC(=O)[C@H](CC(C)C)N(C)C(=O)C[C@@H](C(=O)N2CCOCC2)N(C)C(=O)[C@H](C2CCCC2)N(C)C(=O)C2(CCCC2)NC(=O)[C@@H]2CCCN2C(=O)[C@H](CCc2ccc(C(F)(F)F)c(Cl)c2)NC(=O)CN(C)C(=O)[C@H](Cc2ccc(C)cc2)N2CCCC[C@@H](C2=O)N(C)C(=O)CN(C)C1=O [PP0316]	0.054	–	–	HRAS/KRAS (ratio of KD value for HRAS to KD value for KRAS) [2]: B (a compound having 3 or more and less than 10 is denoted as B); NRAS/KRAS (ratio of KD value for NRAS to KD value for KRAS) [3]: C (A compound having a KD ratio of 0.1 or more and less than 3 is denoted as C)
CCCN1C(=O)CN(C)C(=O)CN(CC)C(=O)[C@H]([C@@H](C)CC)NC(=O)[C@H](CC(C)C)N(C)C(=O)C[C@@H](C(=O)N(C)C)N(C)C(=O)[C@H](C2CCCC2)N(C)C(=O)C2(CCC2)NC(=O)[C@@H]2C[C@@H](OCC)CN2C(=O)[C@H](CCc2ccc(C(F)(F)F)c(Cl)c2)NC(=O)CN(C)C(=O)[C@@H]1Cc1ccc(C(F)(F)F)cc1 [PP0428] ([NMeL]I[NEtG][Sar][NPrPhe(4-CF3)][Sar][hPhe(3-Cl-4-CF3)][Hyp](Et)[Ac4c][NMeGly(cPent)][NMeD]-NMe2; lactam N-11)	0.063	C (A compound having a KD ratio of 0.1 or more and less than 3 is denoted as C)	B (a compound having 3 or more and less than 10 is denoted as B)	–
CCC[C@H]1C(=O)N[C@@H]([C@@H](C)CC)C(=O)N(C)CC(=O)N(C)[C@H]2C/C=C\CCN(C2=O)[C@@H](Cc2ccc(C(F)(F)F)cc2)C(=O)N(C)CC(=O)N[C@@H](CCc2cc(F)c(C(F)(F)F)c(F)c2)C(=O)N2C[C@H](OCC)C[C@H]2C(=O)NC2(CC(C)(C)C2)C(=O)N(C)[C@@H](C(CC)CC)C(=O)N(C)[C@H](C(=O)N(C)C)CC(=O)N1C [PP2125]	–	–	–	Kd ([1]; SPR, Single Cycle Kinetics): 0.22 nM; HRAS/KRAS (ratio of KD value for HRAS to KD value for KRAS) [2]: A (a compound having 10 or more and less than 20 is denoted as A); NRAS/KRAS (ratio of KD value for NRAS to KD value for KRAS) [3]: AA (a compound having 20 or more is denoted as AA)
CCCN1C(=O)[C@@H]2CCN2C(=O)[C@H](C)N(C)C(=O)[C@H]([C@@H](C)CC)NC(=O)[C@H](CC(C)C)N(C)C(=O)C[C@@H](C(=O)N2CCOCC2)N(C)C(=O)[C@H](C2CCCC2)N(C)C(=O)C2(CCCC2)NC(=O)[C@@H]2CCCN2C(=O)[C@H](CCc2ccc(C(F)(F)F)c(Cl)c2)NC(=O)CN(C)C(=O)[C@@H]1CC1CCC(F)(F)CC1 [PP0527] ([NMeL]I[NMeA][Aze][X19][Sar][hPhe(3-Cl-4-CF3)]P[Ac5c][NMeGly(cPent)][NMeD]-Morpholide; lactam N-11)	0.21	C (A compound having a KD ratio of 0.1 or more and less than 3 is denoted as C)	C (A compound having a KD ratio of 0.1 or more and less than 3 is denoted as C)	–
CCCN1C(=O)CN(C)C(=O)[C@@H]2CCN2C(=O)[C@H]([C@@H](C)CC)NC(=O)[C@H](CC(C)C)N(C)C(=O)C[C@@H](C(=O)N2CCOCC2)N(C)C(=O)[C@H](C2CCCC2)N(C)C(=O)C2(CCCC2)NC(=O)[C@@H]2CCCN2C(=O)[C@H](CCc2cc(F)c(C(F)(F)F)c(F)c2)NC(=O)CN(C)C(=O)[C@@H]1Cc1ccc(C(F)(F)F)cc1 [PP0770] ([NMeL]I[Aze][Sar][NPrPhe(4-CF3)][Sar][hPhe(3,5-F2-4-CF3)]P[Ac5c][NMeGly(cPent)][NMeD]-Morpholide; lactam N-11)	0.84	B (a compound having 3 or more and less than 10 is denoted as B)	B (a compound having 3 or more and less than 10 is denoted as B)	–
CCO[C@@H]1C[C@H]2C(=O)NC3(CCC3)C(=O)N(C)[C@@H](C3CCCC3)C(=O)N(C)[C@H](C(=O)N(C)CCOC)CC(=O)N(C)[C@@H](CC3CC3)C(=O)N[C@@H]([C@@H](C)CC)C(=O)N(C)CC(=O)N(C)[C@H]3C/C=C\CCN(C3=O)[C@@H](Cc3ccc(C(F)(F)F)cc3)C(=O)N(C)CC(=O)N[C@@H](CCc3ccc4sccc4c3)C(=O)N2C1 [PP1328]	–	–	–	Kd ([1]; SPR, Single Cycle Kinetics, 1:1 binding model): 0.56 nM; HRAS/KRAS (ratio of KD value for HRAS to KD value for KRAS) ([2]; KD ratio class): A (a compound having 10 or more and less than 20 is denoted as A); NRAS/KRAS (ratio of KD value for NRAS to KD value for KRAS) ([3]; KD ratio class): A (a compound having 10 or more and less than 20 is denoted as A)
